How the values were obtained:
[1] = system: Ca9-22; assay: cells; type: functional, cell-based; settings: Homo sapiens;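 note: growth inhibition of Ca9-22 cells, read out with a cell viability assay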
Description: SANGER: Inhibition of human Ca9-22 cell growth in a cell viability assay.

[2] = system: DG-75; assay: cells; type: functional, cell-based, Homo sapiens; settings: Homo sapiens, DG-75;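 note: growth inhibition of DG-75 cells, read out with a cell viability assay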
Description: SANGER: Inhibition of human DG-75 cell growth in a cell viability assay.

[3] = system: EC-GI-10; assay: cells; type: functional, cell-based, Homo sapiens; settings: Homo sapiens, EC-GI-10
Description: SANGER: Inhibition of human EC-GI-10 cell growth in a cell viability assay.

[4] = system: EGI-1; assay: cells; type: functional, cell-based; settings: Homo sapiens;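 note: cell viability readout used to gauge growth inhibition of EGI-1 cells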
Description: SANGER: Inhibition of human EGI-1 cell growth in a cell viability assay.

[5] = system: G-401; assay: cells; type: functional, cell-based; settings: Homo sapiens
Description: SANGER: Inhibition of human G-401 cell growth in a cell viability assay.

[6] = system: G-402; assay: cells; type: functional, cell-based; settings: Homo sapiens
Description: SANGER: Inhibition of human G-402 cell growth in a cell viability assay.

[7] = system: GAMG; assay: cells; type: functional, cell-based; settings: Homo sapiens;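 note: cell growth inhibition measured by a viability assay in the GAMG human cell line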
Description: SANGER: Inhibition of human GAMG cell growth in a cell viability assay.

[8] = system: GP5d; assay: cells; type: functional, cell-based; settings: Homo sapiens;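 note: growth inhibition of human GP5d cells, read out with a cell viability assay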
Description: SANGER: Inhibition of human GP5d cell growth in a cell viability assay.

[9] = system: HCC1806; assay: cells; type: functional, cell-based; settings: Homo sapiens;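 note: growth inhibition of the cancer cell line, determined with a cell viability assay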
Description: SANGER: Inhibition of human HCC1806 cell growth in a cell viability assay.

[10] = system: HCC38; assay: cells; type: functional, cell-based; settings: Homo sapiens;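 note: cell viability assay on the human HCC38 cell line, with IC50 marking the concentration that inhibits cell growth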
Description: SANGER: Inhibition of human HCC38 cell growth in a cell viability assay.

[11] = system: HCC70; assay: cells; type: functional, cell-based; settings: Homo sapiens;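 note: cell viability assay measuring how strongly the compound suppresses proliferation of HCC70 cells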
Description: SANGER: Inhibition of human HCC70 cell growth in a cell viability assay.

[12] = system: HEC-1; assay: cells; type: functional, cell-based; settings: Homo sapiens;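 note: growth inhibition of the cell line, read out with a cell viability assay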
Description: SANGER: Inhibition of human HEC-1 cell growth in a cell viability assay.

[13] = system: HPAF-II; assay: cells; type: functional, cell-based; settings: Homo sapiens;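 note: growth inhibition of HPAF-II cells, read out with a cell viability assay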
Description: SANGER: Inhibition of human HPAF-II cell growth in a cell viability assay.

[14] = system: HT-3; assay: cells; type: functional, cell-based; settings: Homo sapiens;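 note: growth inhibition measured with a cell viability readout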
Description: SANGER: Inhibition of human HT-3 cell growth in a cell viability assay.

[15] = system: HT55; assay: cells; type: functional, cell-based; settings: Homo sapiens;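 note: cell viability readout measuring growth inhibition of human HT55 cells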
Description: SANGER: Inhibition of human HT55 cell growth in a cell viability assay.

[16] = system: HTC-C3; assay: cells; type: functional, cell-based; settings: Homo sapiens;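 note: inhibition of cell growth, read out with a cell viability assay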
Description: SANGER: Inhibition of human HTC-C3 cell growth in a cell viability assay.

[17] = system: Hs-578T; assay: cells; type: functional, cell-based; settings: Homo sapiens
Description: SANGER: Inhibition of human Hs-578-T cell growth in a cell viability assay.

[18] = system: IM-9; assay: SANGER: Inhibition of human IM-9 cell growth in a cell viability assay.; type: functional, cell-based; settings: Homo sapiens, IM-9
[19] = system: IMR-5; assay: cells; type: functional, cell-based, Homo sapiens; settings: Homo sapiens, IMR-5; read-out: IC50;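 note: growth inhibition of human IMR-5 cells, read out with a cell viability assay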
Description: SANGER: Inhibition of human IMR-5 cell growth in a cell viability assay.

[20] = system: JEG-3; assay: cells; type: functional, cell-based; settings: Homo sapiens;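 note: growth inhibition of human JEG-3 cells, read out with a cell viability assay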
Description: SANGER: Inhibition of human JEG-3 cell growth in a cell viability assay.

[21] = system: KP-N-YN; assay: cells; type: functional, cell-based; settings: Homo sapiens;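 note: growth inhibition of KP-N-YN cells, read out with a cell viability assay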
Description: SANGER: Inhibition of human KP-N-YN cell growth in a cell viability assay.

[22] = system: KYSE-70 cell line; assay: cells; type: functional, cell-based; settings: Homo sapiens;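 note: cell viability assay read-out, with IC50 expressing suppression of KYSE-70 cell growth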
Description: SANGER: Inhibition of human KYSE-70 cell growth in a cell viability assay.

[23] = system: LC4-1; assay: cells; type: functional, cell-based, Homo sapiens; settings: Homo sapiens, LC4-1;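 note: growth inhibition of LC4-1 cells, read out with a cell viability assay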
Description: SANGER: Inhibition of human LC4-1 cell growth in a cell viability assay.

[24] = system: LCLC-103H cell line; assay: cells; type: functional, cell-based; settings: Homo sapiens
Description: SANGER: Inhibition of human LCLC-103H cell growth in a cell viability assay.

[25] = system: LK-2; assay: cells; type: functional, cell-based; settings: Homo sapiens;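 note: growth inhibition of LK-2 cells, read out with a viability assay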
Description: SANGER: Inhibition of human LK-2 cell growth in a cell viability assay.

[26] = system: M059J; assay: cells; type: functional, cell-based; settings: Homo sapiens;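 note: growth inhibition of M059J cells, read out with a cell viability assay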
Description: SANGER: Inhibition of human M059J cell growth in a cell viability assay.

[27] = system: MDA-MB-134-VI; assay: cells; type: functional, cell-based, Homo sapiens; settings: Homo sapiens, MDA-MB-134-VI
Description: SANGER: Inhibition of human MDA-MB-134-VI cell growth in a cell viability assay.

[28] = system: MDA-MB-361; assay: cells; type: functional, cell-based; settings: Homo sapiens
[29] = system: MEL-HO; assay: cells; type: functional, cell-based; settings: Homo sapiens
Description: SANGER: Inhibition of human MEL-HO cell growth in a cell viability assay.

[30] = system: MEL-JUSO; assay: cells; type: functional, cell-based; settings: Homo sapiens;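 note: growth inhibition of human MEL-JUSO cells, read out with a cell viability assay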
Description: SANGER: Inhibition of human MEL-JUSO cell growth in a cell viability assay.

[31] = system: MG-63; assay: cells; type: functional, cell-based; settings: Homo sapiens;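 note: growth inhibition of human MG-63 cells, read out with a cell viability assay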
Description: SANGER: Inhibition of human MG-63 cell growth in a cell viability assay.

[32] = system: MKN-28; assay: cells; type: functional, cell-based; settings: Homo sapiens;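 note: cell viability assay read-out, IC50 reflects suppression of growth of human MKN-28 cells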
Description: SANGER: Inhibition of human MKN28 cell growth in a cell viability assay.

[33] = system: MeWo; assay: cells; type: functional, cell-based; settings: Homo sapiens;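 note: growth inhibition of MeWo cells, determined by a cell viability readout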
Description: SANGER: Inhibition of human Mewo cell growth in a cell viability assay.

[34] = system: NCI-H1563; assay: cells; type: functional, cell-based; settings: Homo sapiens;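 note: growth inhibition of human NCI-H1563 cells, read out with a cell viability assay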
Description: SANGER: Inhibition of human NCI-H1563 cell growth in a cell viability assay.

[35] = system: NCI-H1993; assay: cells; type: functional, cell-based; settings: Homo sapiens;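 note: growth inhibition of the cancer cell line, assessed with a cell viability assay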
Description: SANGER: Inhibition of human NCI-H1993 cell growth in a cell viability assay.

[36] = system: NCI-H460; assay: cells; type: functional, cell-based; settings: Homo sapiens;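 note: cell viability assay scoring growth inhibition of human NCI-H460 cells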
Description: SANGER: Inhibition of human NCI-H460 cell growth in a cell viability assay.

[37] = system: NCI-H510A; assay: cells; type: functional, cell-based, Homo sapiens; settings: Homo sapiens, NCI-H510A;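 note: growth inhibition of NCI-H510A cells, read out with a cell viability assay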
Description: SANGER: Inhibition of human NCI-H510A cell growth in a cell viability assay.

[38] = system: NCI-H522; assay: cells; type: functional, cell-based; settings: Homo sapiens;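 note: cell viability assay measuring growth inhibition of human NCI-H522 cells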
Description: SANGER: Inhibition of human NCI-H522 cell growth in a cell viability assay.

[39] = system: NCI-H524; assay: cells; type: functional, cell-based, Homo sapiens; settings: Homo sapiens, NCI-H524;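 note: growth inhibition of human NCI-H524 cells, read out through a cell viability assay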
Description: SANGER: Inhibition of human NCI-H524 cell growth in a cell viability assay.

[40] = system: NCI-H727; assay: cells; type: functional, cell-based; settings: Homo sapiens;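 note: growth inhibition of human NCI-H727 cells, read out with a cell viability assay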
Description: SANGER: Inhibition of human NCI-H727 cell growth in a cell viability assay.

[41] = system: NUGC-3; assay: cells; type: functional, cell-based; settings: Homo sapiens;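 note: growth inhibition of human NUGC-3 cells, read out with a cell viability assay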
Description: SANGER: Inhibition of human NUGC-3 cell growth in a cell viability assay.

[42] = system: NY; assay: cells; type: functional, cell-based; settings: Homo sapiens
Description: SANGER: Inhibition of human NY cell growth in a cell viability assay.

[43] = system: PANC-08-13; assay: cells; type: functional, cell-based; settings: Homo sapiens
Description: SANGER: Inhibition of human PANC-08-13 cell growth in a cell viability assay.

[44] = system: PC-14; assay: cells; type: functional, cell-based; settings: Homo sapiens;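 note: cell viability assay measuring inhibition of PC-14 cell growth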
Description: SANGER: Inhibition of human PC-14 cell growth in a cell viability assay.

[45] = system: REH; assay: cells; type: functional, cell-based, Homo sapiens; settings: Homo sapiens, REH;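 note: growth inhibition of REH cells determined with a cell viability read-out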
Description: SANGER: Inhibition of human REH cell growth in a cell viability assay.

[46] = system: RPMI-2650; assay: cells; type: functional, cell-based; settings: Homo sapiens
Description: SANGER: Inhibition of human RPMI-2650 cell growth in a cell viability assay.

[47] = system: SAS; assay: cells; type: functional, cell-based; settings: Homo sapiens;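 note: growth inhibition of SAS cells, read out with a cell viability assay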
Description: SANGER: Inhibition of human SAS cell growth in a cell viability assay.

[48] = system: SK-MEL-28; assay: cells; type: functional, cell-based; settings: Homo sapiens;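 note: growth inhibition of human SK-MEL-28 cells, read out with a cell viability assay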
Description: SANGER: Inhibition of human SK-MEL-28 cell growth in a cell viability assay.

[49] = system: SNU-423; assay: cells; type: functional, cell-based; settings: Homo sapiens
Description: SANGER: Inhibition of human SNU-423 cell growth in a cell viability assay.

[50] = system: SW-620; assay: cells; type: functional, cell-based; settings: Homo sapiens;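 note: growth inhibition of human SW-620 cells, measured by a cell viability assay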
Description: SANGER: Inhibition of human SW620 cell growth in a cell viability assay.

[51] = system: SW626; assay: cells; type: functional, cell-based; settings: Homo sapiens;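 note: growth inhibition of SW626 cells, measured with a cell viability assay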
Description: SANGER: Inhibition of human SW626 cell growth in a cell viability assay.

[52] = system: T98G; assay: cells; type: functional, cell-based; settings: Homo sapiens;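 note: growth inhibition of T98G cells, read out by a cell viability assay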
Description: SANGER: Inhibition of human T98G cell growth in a cell viability assay.

[53] = system: TCC-SUP; assay: cells; type: functional, cell-based; settings: Homo sapiens;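 note: growth inhibition of TCC-SUP cells, read out with a cell viability assay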
Description: SANGER: Inhibition of human TCCSUP cell growth in a cell viability assay.

[54] = system: AGS; assay: cells; type: functional, cell-based; settings: Homo sapiens;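 note: growth inhibition of AGS cells, determined with a cell viability assay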
Description: SANGER: Inhibition of human AGS cell growth in a cell viability assay.

[55] = system: BHY; assay: cells; type: functional, cell-based; settings: Homo sapiens;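 note: cell growth inhibition read out by a viability assay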
Description: SANGER: Inhibition of human BHY cell growth in a cell viability assay.

[56] = system: BL-41; assay: cells; type: functional, cell-based; settings: Homo sapiens;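 note: growth inhibition of human BL-41 cells, read out with a cell viability assay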
Description: SANGER: Inhibition of human BL-41 cell growth in a cell viability assay.

[57] = system: BT-20; assay: cells; type: functional, cell-based; settings: Homo sapiens;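 note: cell viability assay measuring suppression of growth in human BT-20 cells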
Description: SANGER: Inhibition of human BT-20 cell growth in a cell viability assay.

[58] = system: CAL-12T; assay: cells; type: functional, cell-based; settings: Homo sapiens;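 note: growth inhibition of human CAL-12T cells, read out with a cell viability assay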
Description: SANGER: Inhibition of human CAL-12T cell growth in a cell viability assay.

[59] = system: VMRC-RCZ; assay: cells; type: functional, cell-based; settings: Homo sapiens
Description: SANGER: Inhibition of human VMRC-RCZ cell growth in a cell viability assay.

[60] = system: CMK; assay: cells; type: functional, cell-based, Homo sapiens; settings: Homo sapiens, CMK;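 note: growth inhibition of CMK cells, read out as cell viability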
Description: SANGER: Inhibition of human CMK cell growth in a cell viability assay.

Structure (SMILES): CCCCCCCCCCCC1=C(O)C(=O)C=C(O)C1=O [EMBELIN]
- IC50 [1]: 12.4 µM
- IC50 [2]: > 32 µM
- IC50 [3]: > 32 µM
- IC50 [4]: 23.1 µM
- IC50 [5]: 8.32 µM
- IC50 [6]: 11.3 µM
- IC50 [7]: 9.09 µM
- IC50 [8]: 8.6 µM
- IC50 [9]: > 32 µM
- IC50 [10]: 17.9 µM
- IC50 [11]: > 32 µM
- IC50 [12]: 13 µM
- IC50 [13]: 25.4 µM
- IC50 [14]: 27.6 µM
- IC50 [15]: > 32 µM
- IC50 [16]: 12.8 µM
- IC50 [17]: 11.1 µM
- IC50 [18]: > 32 µM
- IC50 [19]: > 32 µM
- IC50 [20]: 16.8 µM
- IC50 [21]: > 32 µM
- IC50 [22]: 15.1 µM
- IC50 [23]: > 32 µM
- IC50 [24]: 9.06 µM
- IC50 [25]: 18 µM
- IC50 [26]: 13.1 µM
- IC50 [27]: > 32 µM
- IC50 [28]: 19.6 µM
- IC50 [29]: 5.11 µM
- IC50 [30]: 7.85 µM
- IC50 [31]: 9.64 µM
- IC50 [32]: 10 µM
- IC50 [33]: 15.9 µM
- IC50 [34]: > 32 µM
- IC50 [35]: > 32 µM
- IC50 [36]: 6.09 µM
- IC50 [37]: > 32 µM
- IC50 [38]: 17.7 µM
- IC50 [39]: > 32 µM
- IC50 [40]: 7.88 µM
- IC50 [41]: 9.18 µM
- IC50 [42]: 4.8 µM
- IC50 [43]: > 32 µM
- IC50 [44]: 15.6 µM
- IC50 [45]: 8.62 µM
- IC50 [46]: 7.32 µM
- IC50 [47]: 16.8 µM
- IC50 [48]: 8.48 µM
- IC50 [49]: > 32 µM
- IC50 [50]: 28.8 µM
- IC50 [51]: 9.35 µM
- IC50 [52]: 19.6 µM
- IC50 [53]: 11.6 µM
- IC50 [54]: 8.63 µM
- IC50 [55]: 6.03 µM
- IC50 [56]: 5.5 µM
- IC50 [57]: 14.5 µM
- IC50 [58]: 9.73 µM
- IC50 [59]: 9.47 µM
- IC50 [60]: 10.7 µM

Structure (SMILES): OC[C@H](Cc1ccccc1)Nc1nc(Oc2ccc3c(c2)CCC3)nc2c1ncn2Cc1ccc(-c2ccccc2)cc1
- IC50 [1]: > 10.2 µM
- IC50 [2]: > 10.2 µM
- IC50 [3]: > 10.2 µM
- IC50 [4]: > 10.2 µM
- IC50 [5]: > 10.2 µM
- IC50 [6]: > 10.2 µM
- IC50 [7]: > 10.2 µM
- IC50 [8]: > 10.2 µM
- IC50 [9]: > 10.2 µM
- IC50 [10]: > 10.2 µM
- IC50 [11]: > 10.2 µM
- IC50 [12]: > 10.2 µM
- IC50 [13]: > 10.2 µM
- IC50 [14]: > 10.2 µM
- IC50 [15]: > 10.2 µM
- IC50 [16]: > 10.2 µM
- IC50 [17]: > 10.2 µM
- IC50 [18]: > 10.2 µM
- IC50 [19]: 3.1 µM
- IC50 [20]: > 10.2 µM
- IC50 [21]: > 10.2 µM
- IC50 [22]: > 10.2 µM
- IC50 [23]: > 10.2 µM
- IC50 [24]: > 10.2 µM
- IC50 [25]: > 10.2 µM
- IC50 [26]: > 10.2 µM
- IC50 [27]: > 10.2 µM
- IC50 [28]: > 10.2 µM
- IC50 [29]: 8.39 µM
- IC50 [30]: 7.9 µM
- IC50 [31]: 4.63 µM
- IC50 [32]: 1.73 µM
- IC50 [33]: > 10.2 µM
- IC50 [34]: > 10.2 µM
- IC50 [35]: > 10.2 µM
- IC50 [36]: 2.73 µM
- IC50 [37]: > 10.2 µM
- IC50 [38]: > 10.2 µM
- IC50 [39]: > 10.2 µM
- IC50 [40]: > 10.2 µM
- IC50 [41]: > 10.2 µM
- IC50 [42]: > 10.2 µM
- IC50 [43]: > 10.2 µM
- IC50 [44]: > 10.2 µM
- IC50 [45]: > 10.2 µM
- IC50 [46]: > 10.2 µM
- IC50 [47]: 4.8 µM
- IC50 [48]: > 10.2 µM
- IC50 [49]: > 10.2 µM
- IC50 [50]: 3.16 µM
- IC50 [51]: 8.3 µM
- IC50 [52]: > 10.2 µM
- IC50 [53]: > 10.2 µM
- IC50 [54]: 6.71 µM
- IC50 [55]: 5.13 µM
- IC50 [56]: 3.69 µM
- IC50 [57]: > 10.2 µM
- IC50 [58]: 2.48 µM
- IC50 [59]: > 10.2 µM
- IC50 [60]: > 10.2 µM

— ChEMBL document CHEMBL1201861, “Genomics of Drug Sensitity in Cancer screening data, Wellcome Trust Sanger Institute”
